In US20060188898A1, “Markers for roscovitine” (Cyclacel Limited, priority 2003, published 2006):

Columns and labels:
HT29 colon cancer cells [1] = test: cDNA microarray analysis of mRNA expression in treated HT29 cells; type: cell-based
Text: Total RNA was extracted from cell pellets using TriZol (Life Technologies) and mRNA was purified using the Qiagen Oligotex system. mRNA from control and treated cells was labelled with either Cy3 or Cy5 (NEN or Amersham) fluorescent dCTPs respectively, creating cDNA probes. cDNA microarray slides are made and used as described in Eisen, MB and Brown PO. (1999) DNA Arrays for Analysis of Gene Expression. Methods in Enzymology 303:179-205.
The cDNA probes were then hybridised to the cDNA microarray slides overnight and then washed and scanned using an Axon Labs GenePix 4000B scanner. The slides were verified using GenePix software and normalised prior to analysis in GeneSpring.
A 2 fold cut-off was used to assign significance to a change in mRNA expression. Therefore, any mRNA with a normalised ratio of medians less than 0.5 (FIGS. 1, 3, 5 and 7) or greater than 2 (FIGS. 2, 4, 6 and 8) is deemed significant.

cell cycle progression = conditions: cited from earlier work
CDK7 = CDK7 (Homo sapiens, UniProt P50613); conditions: cited from earlier work
CDK9 = CDK9 (Homo sapiens, UniProt P50750); conditions: cited from earlier work
HT29 colon cancer cells [2] = test: Western blotting of protein expression in treated HT29 cells
Description: HT29 colon cancer cells were seeded into T175 flasks at 3×10^6 cells per flask and allowed to attach for 48 h. […] A cell pellet was made for protein analysis and RNA analysis.
To harvest cells, the medium was removed and cells were incubated with 5 ml trypsin for 5 min at 37° C. to detach them from the plastic. The cells were then pelleted, washed in ice cold PBS and resuspended in ice cold lysis buffer containing 50 mM HEPES pH7.4, 250 mM NaCl, 0.1% NP40, 1 mM DTT, 1 mM EDTA, 1 mM NaF, 10 mM β-glycerophosphate, 0.1 mM sodium orthovanadate and 1 complete protease inhibitor cocktail tablet (Roche, East Sussex, UK) per 10 ml of lysis buffer for 30 minutes on ice. Lysates were centrifuged at approx. 18, 000×g for 10 minutes at 4° C. to remove cellular debris. The supernatant was stored at −80° C. prior to use. The protein concentration of lysates was determined using the BCA protein assay (Pierce, Rockford, USA). Proteins were separated by SDS-PAGE using Novex precast tris-glycine gels (Invitrogen, Groningen, The Netherlands) and transferred to Immobilon-P membranes (Millipore, Bedford, USA). Membranes were blocked for 1 hour in TBS™ 50 mM Tris pH7.5, 150 mM NaCl, 0.1% Tween 20 (Sigma, Dorset, UK) and 3% milk. Immunoblotting with primary antibodies diluted in TBS™ was performed at 4° C. overnight, followed by a 1 hour incubation with HRP-conjugated secondary antibodies at room temperature. Membranes were washed with ECL reagents and exposed to Hyperfilm (Amersham Pharmacia Biotech, Buckinghamshire, UK).

[3] = 50 μM CYC202, time course 4-48 h
[4] = 50 μM CYC202, time course 4-48 h, Western blot

Sequence of CDK7 (P50613 whole entry, species assumed): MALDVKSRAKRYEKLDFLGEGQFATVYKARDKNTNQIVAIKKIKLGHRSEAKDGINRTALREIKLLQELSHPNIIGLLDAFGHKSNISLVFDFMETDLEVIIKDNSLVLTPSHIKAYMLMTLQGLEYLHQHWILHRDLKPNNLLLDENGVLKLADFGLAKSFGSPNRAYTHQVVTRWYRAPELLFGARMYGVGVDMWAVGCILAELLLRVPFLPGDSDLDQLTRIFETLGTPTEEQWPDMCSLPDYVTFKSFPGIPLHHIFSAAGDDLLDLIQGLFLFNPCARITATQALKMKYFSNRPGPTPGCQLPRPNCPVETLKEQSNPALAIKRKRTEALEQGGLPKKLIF
Sequence of CDK7 (P51946 whole entry partner, species assumed): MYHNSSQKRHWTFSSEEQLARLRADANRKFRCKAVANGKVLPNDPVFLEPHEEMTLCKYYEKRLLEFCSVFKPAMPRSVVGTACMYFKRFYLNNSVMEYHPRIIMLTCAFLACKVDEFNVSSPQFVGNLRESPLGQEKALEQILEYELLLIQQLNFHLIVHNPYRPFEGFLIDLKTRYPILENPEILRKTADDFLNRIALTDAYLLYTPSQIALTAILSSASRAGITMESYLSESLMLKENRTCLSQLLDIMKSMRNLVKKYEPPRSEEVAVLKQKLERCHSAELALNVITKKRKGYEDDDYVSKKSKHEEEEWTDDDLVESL
Sequence of CDK9 (P50750 whole entry, species assumed): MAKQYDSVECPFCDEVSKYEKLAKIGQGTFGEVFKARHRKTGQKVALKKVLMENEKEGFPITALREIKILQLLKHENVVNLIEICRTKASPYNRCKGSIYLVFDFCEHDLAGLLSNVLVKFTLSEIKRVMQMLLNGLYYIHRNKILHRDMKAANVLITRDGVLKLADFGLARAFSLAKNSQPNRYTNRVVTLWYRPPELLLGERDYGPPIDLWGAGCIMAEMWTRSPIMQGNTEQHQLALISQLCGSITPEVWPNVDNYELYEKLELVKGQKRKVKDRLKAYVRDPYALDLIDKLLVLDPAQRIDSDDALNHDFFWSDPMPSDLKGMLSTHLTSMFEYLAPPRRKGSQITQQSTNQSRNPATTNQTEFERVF
Sequence of CDK9 (O60563 whole entry partner, species assumed): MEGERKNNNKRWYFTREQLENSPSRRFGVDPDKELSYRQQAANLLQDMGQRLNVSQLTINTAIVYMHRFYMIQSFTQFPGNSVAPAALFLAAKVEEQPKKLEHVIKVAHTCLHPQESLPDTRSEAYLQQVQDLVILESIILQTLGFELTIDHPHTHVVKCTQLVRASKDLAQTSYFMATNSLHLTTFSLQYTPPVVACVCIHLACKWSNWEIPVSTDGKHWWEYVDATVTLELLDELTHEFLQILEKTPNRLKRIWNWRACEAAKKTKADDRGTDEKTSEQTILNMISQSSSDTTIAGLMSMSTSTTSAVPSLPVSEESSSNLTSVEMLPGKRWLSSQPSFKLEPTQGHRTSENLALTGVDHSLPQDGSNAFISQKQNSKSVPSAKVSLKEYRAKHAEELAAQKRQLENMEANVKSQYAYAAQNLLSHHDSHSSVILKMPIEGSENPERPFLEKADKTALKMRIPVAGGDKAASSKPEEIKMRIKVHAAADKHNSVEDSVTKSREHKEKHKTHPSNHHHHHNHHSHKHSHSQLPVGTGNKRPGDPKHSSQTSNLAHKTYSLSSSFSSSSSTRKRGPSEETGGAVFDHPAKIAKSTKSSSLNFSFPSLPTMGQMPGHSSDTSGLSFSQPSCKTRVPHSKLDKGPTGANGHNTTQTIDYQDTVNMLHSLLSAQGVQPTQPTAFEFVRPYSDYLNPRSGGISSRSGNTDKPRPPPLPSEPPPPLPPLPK

CC[C@H](CO)Nc1nc(NCc2ccccc2)c2ncn(C(C)C)c2n1 [CYC202, 2-(R)-(1-ethyl-2-hydroxyethylamino)-6-benzylamino-9-isopropylpurine]
c-JUN mRNA expression (HT29 colon cancer cells [1]; 50 μM CYC202, 4-48 h): induced to significant levels from 4 h and is maintained at that level for the duration of the experiment
EGR-1 mRNA expression (HT29 colon cancer cells [1]; 50 μM CYC202, 4-48 h, two fold cut off): induced from as early as 4 h and is maintained above the two fold cut off for the duration of the experiment
aurora 1 mRNA expression (HT29 colon cancer cells [1]; [3]): markedly inhibited
cyclin B2 mRNA expression (HT29 colon cancer cells [1]; [3]): markedly inhibited
polo-like kinase 1 mRNA expression (HT29 colon cancer cells [1]; [3]): markedly inhibited
effect on cell cycle progression (cell cycle progression): block cell cycle progression in late G1/early S and in M-phase
inhibition of CDK7 (CDK7): inhibit
inhibition of CDK9 (CDK9): inhibit
c-JUN protein expression (HT29 colon cancer cells [2]; 50 μM CYC202, 4 h and 12 h, Western blot, phosphorylated, active form): induced at 4 h and 12 h
EGR-1 protein expression (HT29 colon cancer cells [2]; 50 μM CYC202, Western blot): transiently induced at 12 h
c-JUN protein expression (HT29 colon cancer cells [2]; 50 μM CYC202, after 24 h, Western blot): lost after 24 h
aurora 1 protein expression (HT29 colon cancer cells [2]; [4]): markedly inhibited
cyclin B2 protein expression (HT29 colon cancer cells [2]; [4]): markedly inhibited
polo-like kinase 1 protein expression (HT29 colon cancer cells [2]; [4]): markedly inhibited
